Results taken from patent US20080249130A1, “Gut microsomal triglyceride transport protein inhibitors” (Sirtris Pharmaceuticals, Inc., priority 2007, published 2008).
“And” between values parts separate entries of the source, which are not always exact repeats. Equal values may be shown once. Where a name gives a salt, the structure may show the parent alone. Read-outs that look alike come from different tables or passages of the source.

Experiments:
[1] = system: secretion of ApoB by HepG2 cells; experiment: ApoB secretion inhibition assay in HepG2 cells (ApoB ELISA); format: cell-based, human; conditions: Homo sapiens
Procedure: The ability of the compounds of the present invention to inhibit the secretion of ApoB can be determined using the following cell-based assay, which measures the secretion of ApoB by HepG2 cells. ApoB has two possible metabolic fates: entrance into the lipoprotein assembly pathway within the lumen of the endoplasmic reticulum (ER), or degradation in the cytoplasm by the ubiquitin-dependent proteasome. The destiny of ApoB is determined by the relative availability of individual lipids, which is controlled by MTP (Davis, Biochim. Biophys. Acta, 1999, 1440, 1-31).
HepG2 cells (ATCC, HB-8065) are seeded in 96-well plates in DMEM with 10% FBS+pen/strep at a density of 1×10^5 cells/well (100 μl /well). Twenty-four hours after seeding, the plate is aspirated and the media changed to DMEM with 1% BSA and pen/strep, and the cells are serum-starved for 24 hours. After 24 hour serum-starvation, the plate is aspirated again and the cells are then treated for 24 hours with or without compound in DMEM with 1% BSA, 0.3 mM OA (OA complexed to BSA at a 2:1 ratio) and pen/strep. The final concentration of DMSO in the assay (from compound and control) is 0.1%. After 24 hour treatment, conditioned media is collected in an empty 96-well plate.
Cellular viability is measured using the cell permeable dye, AlamarBlue™. This dye undergoes electron reduction in viable cells but not dead cells. The reduced dye product gives a fluorescent signal which can be monitored with a fluorescence plate reader (excitation 545 nm and emission 575 nm). The amount of fluorescence generated in a given well is proportional to the number of viable cells. After collection, the 96-well plate is re-fed with 100 μl media (DMEM with 10% FBS) and 10 μl Alamar Blue™ per well, incubated for 2 hours and then read in a fluorescence plate reader.
ApoB secretion from HepG2 cells is quantitated by testing the conditioned media at […] using an ApoB ELISA kit (ALerCHEK) according to the manufacturer's instructions. The ELISA assay for ApoB is performed as follows: a polyclonal antibody against human ApoB (Chemicon) is diluted 1:1000 in carbonate-bicarbonate buffer and 100 μl are added to each well of a 96-well plate (NUNC). After 5 hours incubation at room temperature, the antibody solution is removed and wells are washed four times with PBS/0.05% TweenD 20 (Cayman Chemical Co.). Non-specific sites on the plastic plate are blocked by incubating wells for 1 to 1.5 hours in a solution of 0.5% BSA and 0.1% TweenD 20 made in PBS. One hundred microliters of a 1:20 dilution of growth medium from the HepG2 cells (made in 0.004% TweenD 20/1% BSA in PBS) is added to each well and incubated for 3 hours at room temperature. Wells are aspirated and washed four times (0.05% TweenD 20 in PBS) prior to adding 100 μl of a 1:1000 dilution (5 μg/ml) of the secondary antibody, mouse anti-human ApoB (Chemicon). After 2 hours incubation at room temperature, this solution is aspirated and the wells are again washed 4 times as above. One hundred microliters of peroxidase-conjugated affinity purified goat anti-mouse IgG (H+L) (Jackson ImmunoResearch Laboratories) (1:10,000 dilution in PBS/1% BSA/0.1% TweenD 20) is then added to each well and incubated for 1 hour at room temperature. After aspirating, the wells are washed 4 times as above and 50 μl of 1-step Ultra TMB ELISA reagent (Pierce) is added to each well and incubated for 5 minutes. The reaction is stopped by the addition of 50 μl of 2 NH2SO4 and absorbance of each well is read at 450 nm.

[2] = molecular target: MTP (Homo sapiens, UniProt P55157); experiment: In vitro inhibition of MTP, triacylglycerol transfer assay with donor and acceptor liposomes (fluorescence); format: biochemical
Procedure: This assay is commercially available (Cat. #D400, Chylos Inc., New York). Liposomes are pipetted in 5 μl aliquots into the wells of a black fluorescence microtiter plate, followed by addition of 5 μl of water and an incubation of 2-5 min to allow the samples to equilibrate to rt. Next, 5 μl of compound dissolved in DMSO is added to the vesicles. The reaction is initated by the addition of 5 μl MTP, followed by incubation for 30 min at room temperature. […] Time of incubation can be increased to measure low activity in different samples. In such situations, samples are prepared just prior to measuring fluorescence units. For this purpose, isopropanol is added to substrate vesicles about 5 min prior to fluorescence measurement as the fluorescence readings in isopropanol decrease with time.

[3] = HepG2, Table 6, assay of Example 2, read-out: IC50 ApoB Assay
[4] = Table 6, assay of Example 3, read-out: IC50 Enzyme Assay

Sequence of MTP (P55157 19-894, species assumed): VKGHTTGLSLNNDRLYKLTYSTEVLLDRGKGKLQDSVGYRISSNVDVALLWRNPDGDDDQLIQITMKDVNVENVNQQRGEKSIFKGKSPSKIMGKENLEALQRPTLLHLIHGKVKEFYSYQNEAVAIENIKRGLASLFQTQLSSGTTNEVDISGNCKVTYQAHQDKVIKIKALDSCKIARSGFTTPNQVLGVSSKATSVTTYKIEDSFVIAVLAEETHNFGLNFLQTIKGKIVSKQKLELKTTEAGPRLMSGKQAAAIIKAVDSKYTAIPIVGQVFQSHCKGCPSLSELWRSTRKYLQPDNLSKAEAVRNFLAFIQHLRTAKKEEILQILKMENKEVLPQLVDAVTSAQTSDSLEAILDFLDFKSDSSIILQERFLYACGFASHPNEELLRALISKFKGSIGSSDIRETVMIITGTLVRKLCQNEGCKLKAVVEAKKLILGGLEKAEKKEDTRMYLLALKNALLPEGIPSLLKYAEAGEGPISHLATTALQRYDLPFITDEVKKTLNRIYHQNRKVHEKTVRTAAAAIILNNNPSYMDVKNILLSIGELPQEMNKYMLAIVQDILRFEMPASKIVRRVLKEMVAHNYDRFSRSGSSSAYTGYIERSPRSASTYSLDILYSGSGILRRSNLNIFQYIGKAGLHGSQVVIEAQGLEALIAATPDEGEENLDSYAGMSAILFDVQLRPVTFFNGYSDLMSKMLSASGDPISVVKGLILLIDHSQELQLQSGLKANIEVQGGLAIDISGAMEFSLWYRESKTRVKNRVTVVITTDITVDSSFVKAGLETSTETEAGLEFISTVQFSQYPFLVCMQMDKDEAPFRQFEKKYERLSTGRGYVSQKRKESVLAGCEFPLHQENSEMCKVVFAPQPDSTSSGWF
Sequence of MTP (P07237 18-508 partner, species assumed): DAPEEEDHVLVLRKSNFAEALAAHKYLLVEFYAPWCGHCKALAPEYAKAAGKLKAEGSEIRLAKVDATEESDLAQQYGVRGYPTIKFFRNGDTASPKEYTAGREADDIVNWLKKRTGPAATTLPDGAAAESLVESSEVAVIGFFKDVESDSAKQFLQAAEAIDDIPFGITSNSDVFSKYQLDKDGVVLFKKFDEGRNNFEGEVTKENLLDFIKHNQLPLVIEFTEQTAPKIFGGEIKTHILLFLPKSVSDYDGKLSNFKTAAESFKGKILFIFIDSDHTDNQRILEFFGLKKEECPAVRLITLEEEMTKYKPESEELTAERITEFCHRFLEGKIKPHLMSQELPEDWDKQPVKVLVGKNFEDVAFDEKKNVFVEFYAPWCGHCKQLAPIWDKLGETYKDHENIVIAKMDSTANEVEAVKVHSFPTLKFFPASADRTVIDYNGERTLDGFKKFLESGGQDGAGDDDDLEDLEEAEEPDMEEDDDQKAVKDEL

| IC50 ([1]; HepG2, Tables 2-5, second symbol of the cell, read-out: IC50 Apo B Secretion Assay (Example 2)) | IC50 ([2]; Tables 2-5, first symbol of the cell, read-out: IC50 Tri-acylglycerol (TAG) Transfer Assay (Example 3)) | IC50 [1, 3] | IC50 [2, 4] | Compound |
| --- | --- | --- | --- | --- |
| < 100 nM | < 100 nM | – | – | CN(Cc1ccc(F)cc1)C(=O)[C@@H](NC(=O)c1nc2ccc(NC(=O)c3ccccc3-c3ccc(C(C)(C)C)cc3)cc2s1)c1ccccc1 (single isomer, unassigned) |
| – | – | 6000 nM | > 1000 nM | CN(Cc1ccc(F)cc1)C(=O)[C@@H](NC(=O)c1ccc2nc(NC(=O)c3ccccc3C3CCNCC3)ccc2c1)c1ccccc1 [Compound 1, (S)—N-(2-((4-fluorobenzyl)(methyl)amino)-2-oxo-1-phenylethyl)-2-(2-(piperidin-4-yl)benzamido)quinoline-6-carboxamide hydrochloride] |
| – | – | 3500 nM | 530 nM | CN(Cc1ccc(F)cc1)C(=O)[C@@H](NC(=O)c1ccc2nc(NC(=O)c3ccccc3C3CCNC3)ccc2c1)c1ccccc1 (stereo partly drawn) [Compound 2, N—((S)-2-((4-fluorobenzyl)(methyl)amino)-2-oxo-1-phenylethyl)-2-(2-(pyrrolidin-3-yl)benzamido)quinoline-6-carboxamide hydrochloride] |
| – | – | 8 nM | 10.9 nM | CN(Cc1ccc(F)cc1)C(=O)[C@@H](NC(=O)c1ccc2nc(NC(=O)c3ccccc3-c3cn4ccsc4n3)ccc2c1)c1ccccc1 [Compound 3, (S)—N-(2-((4-fluorobenzyl)(methyl)amino)-2-oxo-1-phenylethyl)-2-(2-(imidazo[2,1-b]thiazol-6-yl)benzamido)quinoline-6-carboxamide] |
| – | – | 3 nM | 13.9 nM and 3 nM | CN(Cc1ccc(F)cc1)C(=O)[C@@H](NC(=O)c1nc2ccc(NC(=O)c3ccccc3-c3ccc(C(C)(C)C)cc3)cc2s1)c1ccccc1 [Compound 4, (S)-6-(4′-tert-butylbiphenyl-2-ylcarboxamido)-N-(2-((4-fluorobenzyl)(methyl)amino)-2-oxo-1-phenylethyl)benzo[d]thiazole-2-carboxamide] |
| – | – | 6.5 nM | 9.5 nM | CCCCN(C)C(=O)[C@@H](NC(=O)c1nc2ccc(NC(=O)c3ccccc3-c3ccc(C(C)(C)C)cc3)cc2s1)c1ccccc1 [Compound 5] |
| – | – | 1 nM | 2.6 nM | CC(C)(C)c1ccc(-c2ccccc2C(=O)Nc2ccc3nc(C(=O)N[C@H](C(=O)N4CCCC4)c4ccccc4)sc3c2)cc1 [Compound 7] |
| – | – | 3.1 nM | 8.4 nM | CCCCCNC(=O)[C@@H](NC(=O)c1nc2ccc(NC(=O)c3ccccc3-c3ccc(C(C)(C)C)cc3)cc2s1)c1ccccc1 [Compound 8] |
| – | – | 54 nM | 33 nM | CN(Cc1ccc(F)cc1)C(=O)[C@@H](NC(=O)C12CCC(CNC(=O)c3ccccc3-c3ccc(C(C)(C)C)cc3)(CC1)CC2)c1ccccc1 [Compound 10, (S)-4-((4′-tert-butylbiphenyl-2-ylcarboxamido)methyl)-N-(2-((4-fluorobenzyl)(methyl)amino)-2-oxo-1-phenylethyl)bicyclo[2.2.2]octane-1-carboxamide] |
| – | – | 41 nM | 2 nM | CC(C)(C)c1ccc(-c2ccccc2C(=O)Nc2nc(-c3cccc(C(=O)N[C@H](C(=O)N4CCCC4)c4ccccc4)c3)cs2)cc1 [Compound 12, (S)-4′-tert-butyl-N-(4-(3-(2-oxo-1-phenyl-2-(pyrrolidin-1-yl)ethylcarbamoyl)phenyl)thiazol-2-yl)biphenyl-2-carboxamide] |
| – | – | 8.8 nM | 5.2 nM | CC(C)(C)c1ccc(-c2ccccc2C(=O)Nc2ccc3nc(C(=O)N[C@H](C(=O)N4CCC(F)(F)C4)c4ccccc4)sc3c2)cc1 [Compound 14] |
| – | – | 23.7 nM | 15 nM | CN(Cc1ccc(F)cc1)C(=O)[C@@H](NC(=O)c1nc2ccc(NC(=O)c3ccccc3-c3cn4ccsc4n3)cc2s1)c1ccccc1 [Compound 24, (S)—N-(2-((4-fluorobenzyl)(methyl)amino)-2-oxo-1-phenylethyl)-6-(2-(imidazo[2,1-b]thiazol-6-yl)benzamido)benzo[d]thiazole-2-carboxamide] |
| – | – | 31 nM | 45 nM | CN(Cc1ccc(F)cc1)C(=O)[C@@H](NC(=O)c1nc2ccc(NC(=O)c3ccccc3-n3cccc3)cc2s1)c1ccccc1 [Compound 30] |
| – | – | 17.3 nM | 145 nM | CN(Cc1ccc(F)cc1)C(=O)[C@@H](NC(=O)c1nc2ccc(NC(=O)c3ccccc3-c3ccc(C(F)(F)F)cc3)cc2s1)c1ccccc1 [Compound 32] |
| – | – | 6.4 nM | 7.1 nM | CN(Cc1ccc(F)cc1)C(=O)[C@@H](NC(=O)c1cn2cc(NC(=O)c3ccccc3-c3ccc(C(C)(C)C)cc3)ccc2n1)c1ccccc1 [Compound 33, (S)-6-(4′-tert-butylbiphenyl-2-ylcarboxamido)-N-(2-((4-fluorobenzyl)(methyl)amino)-2-oxo-1-phenylethyl)imidazo[1,2-a]pyridine-2-carboxamide] |
| – | – | 6.7 nM | 5.7 nM | CC(C)(C)c1ccc(-c2ccccc2C(=O)Nc2nc(-c3ccc(C(=O)N[C@H](C(=O)N4CCCC4)c4ccccc4)cc3)cs2)cc1 [Compound 36, (S)-4′-tert-butyl-N-(4-(4-(2-oxo-1-phenyl-2-(pyrrolidin-1-yl)ethylcarbamoyl)phenyl)thiazol-2-yl)biphenyl-2-carboxamide] |
| – | – | 22.4 nM | 24 nM | CN(Cc1ccc(F)cc1)C(=O)[C@@H](NC(=O)c1nc2ccc(NC(=O)c3ccccc3-c3csc(-c4ccccc4)n3)cc2s1)c1ccccc1 [Compound 38] |
| – | – | 4.2 nM | 13 nM | CN(Cc1ccc(F)cc1)C(=O)[C@@H](NC(=O)c1nc2ccc(NC(=O)c3ccccc3-c3cn4ccccc4n3)cc2s1)c1ccccc1 [Compound 40] |
| – | – | 2.9 nM | 4.7 nM | Cc1cccc(C(=O)Nc2ccc3nc(C(=O)N[C@H](C(=O)N(C)Cc4ccc(F)cc4)c4ccccc4)sc3c2)c1-c1ccc(C(C)(C)C)cc1 [Compound 41] |
| – | – | 8.5 nM | 4.5 nM | Cc1cccc(C(=O)Nc2nc(-c3cccc(C(=O)N[C@H](C(=O)N4CCCC4)c4ccccc4)c3)cs2)c1-c1ccc(C(C)(C)C)cc1 [Compound 42] |
| – | – | 6.2 nM | 15.3 nM and 11.2 nM | CC(C)c1ccc(-c2ccccc2C(=O)Nc2ccc3nc(C(=O)N[C@H](C(=O)N(C)Cc4ccc(F)cc4)c4ccccc4)sc3c2)cc1 [Compound 54, (S)—N-(2-((4-fluorobenzyl)(methyl)amino)-2-oxo-1-phenylethyl)-6-(4′-isopropylbiphenyl-2-ylcarboxamido)benzo[d]thiazole-2-carboxamide] |
| – | – | 6.7 nM | 8.1 nM and 3.9 nM | CC(C)c1ccc(-c2ccccc2C(=O)Nc2ccc3nc(C(=O)N[C@H](C(=O)N4CCCC4)c4ccccc4)sc3c2)cc1 [Compound 55, (S)-6-(4′-isopropylbiphenyl-2-ylcarboxamido)-N-(2-oxo-1-phenyl-2-(pyrrolidin-1-yl)ethyl)benzo[d]thiazole-2-carboxamide] |
